Results as given in paper PMC8078842 (PLoS Neglected Tropical Diseases, 2021).

Test: In situ brain/choroid plexus perfusion (10 or 30 minutes) with capillary depletion
Details: 30 min perfusion, not corrected for vascular space

Substance: [^3H(G)]pentamidine
- RTISSUE/PLASMA% (mean ± SEM) of [^3H]pentamidine (Cerebellum, 0.1% F68 + 15.7 nM pent): 14.44 (± 2.47) %
- RTISSUE/PLASMA% (mean ± SEM) of [^3H]pentamidine (Cerebellum, 0.5% F68 + 15.7 nM pent): 17.28 (± 3.54) %
- RTISSUE/PLASMA% (mean ± SEM) of [^3H]pentamidine (Cerebellum, Control (15.7 nM pent)): 12.92 (± 1.10) %
- RTISSUE/PLASMA% (mean ± SEM) of [^3H]pentamidine (Choroid plexus, 0.01% F68 + 15.7 nM pent): 835.26 (± 260.20) %
- RTISSUE/PLASMA% (mean ± SEM) of [^3H]pentamidine (Choroid plexus, 0.1% F68 + 15.7 nM pent): 944.85 (± 235.90) %
- RTISSUE/PLASMA% (mean ± SEM) of [^3H]pentamidine (Choroid plexus, 0.5% F68 + 15.7 nM pent): 1844.80 (± 493.51) %
- RTISSUE/PLASMA% (mean ± SEM) of [^3H]pentamidine (Choroid plexus, Control (15.7 nM pent)): 1241.60 (± 92.86) %
- RTISSUE/PLASMA% (mean ± SEM) of [^3H]pentamidine (Corpus callosum, 0.01% F68 + 15.7 nM pent): 2.02 (± 1.22) %
- RTISSUE/PLASMA% (mean ± SEM) of [^3H]pentamidine (Corpus callosum, 0.1% F68 + 15.7 nM pent): 9.47 (± 0.94) %
- RTISSUE/PLASMA% (mean ± SEM) of [^3H]pentamidine (Corpus callosum, 0.5% F68 + 15.7 nM pent): 15.72 (± 6.78) %
- RTISSUE/PLASMA% (mean ± SEM) of [^3H]pentamidine (Corpus callosum, Control (15.7 nM pent)): 8.19 (± 1.97) %
- RTISSUE/PLASMA% (mean ± SEM) of [^3H]pentamidine (Frontal cortex, 0.01% F68 + 15.7 nM pent): 9.00 (± 1.47) %
- RTISSUE/PLASMA% (mean ± SEM) of [^3H]pentamidine (Frontal cortex, 0.1% F68 + 15.7 nM pent): 11.91 (± 1.35) %
- RTISSUE/PLASMA% (mean ± SEM) of [^3H]pentamidine (Frontal cortex, 0.5% F68 + 15.7 nM pent): 17.54 (± 3.58) %
- RTISSUE/PLASMA% (mean ± SEM) of [^3H]pentamidine (Frontal cortex, Control (15.7 nM pent)): 10.35 (± 0.84) %
- RTISSUE/PLASMA% (mean ± SEM) of [^3H]pentamidine (Hippocampus, 0.01% F68 + 15.7 nM pent): 6.05 (± 1.20) %
- RTISSUE/PLASMA% (mean ± SEM) of [^3H]pentamidine (Hippocampus, 0.1% F68 + 15.7 nM pent): 7.93 (± 1.20) %
- RTISSUE/PLASMA% (mean ± SEM) of [^3H]pentamidine (Hippocampus, 0.5% F68 + 15.7 nM pent): 10.65 (± 2.55) %
- RTISSUE/PLASMA% (mean ± SEM) of [^3H]pentamidine (Hippocampus, Control (15.7 nM pent)): 8.19 (± 0.30) %
- RTISSUE/PLASMA% (mean ± SEM) of [^3H]pentamidine (Homogenate (capillary depletion), 0.01% F68 + 15.7 nM pent): 9.63 (± 0.93) %
- RTISSUE/PLASMA% (mean ± SEM) of [^3H]pentamidine (Homogenate (capillary depletion), 0.1% F68 + 15.7 nM pent): 11.19 (± 1.62) %
- RTISSUE/PLASMA% (mean ± SEM) of [^3H]pentamidine (Homogenate (capillary depletion), 0.5% F68 + 15.7 nM pent): 14.45 (± 3.93) %
- RTISSUE/PLASMA% (mean ± SEM) of [^3H]pentamidine (Homogenate (capillary depletion), Control (15.7 nM pent)): 10.18 (± 0.92) %
- RTISSUE/PLASMA% (mean ± SEM) of [^3H]pentamidine (Hypothalamus, 0.01% F68 + 15.7 nM pent): 8.90 (± 1.42) %
- RTISSUE/PLASMA% (mean ± SEM) of [^3H]pentamidine (Hypothalamus, 0.1% F68 + 15.7 nM pent): 11.17 (± 1.42) %
- RTISSUE/PLASMA% (mean ± SEM) of [^3H]pentamidine (Hypothalamus, 0.5% F68 + 15.7 nM pent): 18.73 (± 4.67) %
- RTISSUE/PLASMA% (mean ± SEM) of [^3H]pentamidine (Hypothalamus, Control (15.7 nM pent)): 18.49 (± 4.17) %
- RTISSUE/PLASMA% (mean ± SEM) of [^3H]pentamidine (Occipital cortex, 0.01% F68 + 15.7 nM pent): 8.80 (± 1.47) %
- RTISSUE/PLASMA% (mean ± SEM) of [^3H]pentamidine (Occipital cortex, 0.1% F68 + 15.7 nM pent): 12.14 (± 1.62) %
- RTISSUE/PLASMA% (mean ± SEM) of [^3H]pentamidine (Occipital cortex, 0.5% F68 + 15.7 nM pent): 15.85 (± 2.71) %
- RTISSUE/PLASMA% (mean ± SEM) of [^3H]pentamidine (Occipital cortex, Control (15.7 nM pent)): 9.52 (± 1.08) %
- RTISSUE/PLASMA% (mean ± SEM) of [^3H]pentamidine (Pellet (capillary depletion), 0.01% F68 + 15.7 nM pent): 18.16 (± 2.79) %
- RTISSUE/PLASMA% (mean ± SEM) of [^3H]pentamidine (Pellet (capillary depletion), 0.1% F68 + 15.7 nM pent): 22.15 (± 4.44) %
- RTISSUE/PLASMA% (mean ± SEM) of [^3H]pentamidine (Pellet (capillary depletion), Control (15.7 nM pent)): 16.45 (± 2.76) %
- RTISSUE/PLASMA% (mean ± SEM) of [^3H]pentamidine (Pineal gland, 0.01% F68 + 15.7 nM pent): 341.30 (± 39.57) %
- RTISSUE/PLASMA% (mean ± SEM) of [^3H]pentamidine (Pineal gland, 0.1% F68 + 15.7 nM pent): 342.95 (± 92.02) %
- RTISSUE/PLASMA% (mean ± SEM) of [^3H]pentamidine (Pineal gland, 0.5% F68 + 15.7 nM pent): 525.94 (± 122.85) %
- RTISSUE/PLASMA% (mean ± SEM) of [^3H]pentamidine (Pineal gland, Control (15.7 nM pent)): 664.25 (± 82.42) %
- RTISSUE/PLASMA% (mean ± SEM) of [^3H]pentamidine (Pituitary gland, 0.01% F68 + 15.7 nM pent): 324.42 (± 44.06) %
- RTISSUE/PLASMA% (mean ± SEM) of [^3H]pentamidine (Pituitary gland, 0.1% F68 + 15.7 nM pent): 434.10 (± 59.56) %
- RTISSUE/PLASMA% (mean ± SEM) of [^3H]pentamidine (Pituitary gland, 0.5% F68 + 15.7 nM pent): 881.90 (± 170.25) %
- RTISSUE/PLASMA% (mean ± SEM) of [^3H]pentamidine (Pituitary gland, Control (15.7 nM pent)): 394.51 (± 52.42) %
- RTISSUE/PLASMA% (mean ± SEM) of [^3H]pentamidine (Pons, 0.01% F68 + 15.7 nM pent): 17.61 (± 3.70) %
- RTISSUE/PLASMA% (mean ± SEM) of [^3H]pentamidine (Pons, 0.1% F68 + 15.7 nM pent): 20.36 (± 3.70) %
- RTISSUE/PLASMA% (mean ± SEM) of [^3H]pentamidine (Pons, 0.5% F68 + 15.7 nM pent): 20.43 (± 5.67) %
- RTISSUE/PLASMA% (mean ± SEM) of [^3H]pentamidine (Pons, Control (15.7 nM pent)): 15.16 (± 1.48) %
- RTISSUE/PLASMA% (mean ± SEM) of [^3H]pentamidine (Supernatant (capillary depletion), 0.01% F68 + 15.7 nM pent): 3.77 (± 0.94) %
- RTISSUE/PLASMA% (mean ± SEM) of [^3H]pentamidine (Supernatant (capillary depletion), 0.1% F68 + 15.7 nM pent): 6.63 (± 0.52) %
- RTISSUE/PLASMA% (mean ± SEM) of [^3H]pentamidine (Supernatant (capillary depletion), 0.5% F68 + 15.7 nM pent): 6.45 (± 1.35) %
- RTISSUE/PLASMA% (mean ± SEM) of [^3H]pentamidine (Supernatant (capillary depletion), Control (15.7 nM pent)): 5.54 (± 0.37) %
- RTISSUE/PLASMA% (mean ± SEM) of [^3H]pentamidine (Thalamus, 0.01% F68 + 15.7 nM pent): 7.99 (± 1.06) %
- RTISSUE/PLASMA% (mean ± SEM) of [^3H]pentamidine (Thalamus, 0.1% F68 + 15.7 nM pent): 11.08 (± 1.06) %
- RTISSUE/PLASMA% (mean ± SEM) of [^3H]pentamidine (Thalamus, 0.5% F68 + 15.7 nM pent): 13.52 (± 3.10) %
- RTISSUE/PLASMA% (mean ± SEM) of [^3H]pentamidine (Thalamus, Control (15.7 nM pent)): 9.94 (± 1.95) %
